Experiments:
[1] = Dog PK, crystalline compound 2 suspension injected intramuscularly (Table 24A); assay type: in vivo; parameters: Clast: unit not given here; conditions: plasma analyte = labelled substance; for half-life / plasma exposure (in words): after IM crystalline Compound 2 10 mg/kg suspension
Experimental: Compound 2 was dosed in dog at 10 mg/kg (Injection volume: 0.5 mL/kg). The material was formulated as a 20 mg/mL suspension in 3% TPGS and 1% HPMC E5. […] Half-life of ELQ-300 was about […] as that of compound 2 (205 and 124 respectively).

sporozoites = assay: Sporozoite challenge at day 14 following IM administration of Compound 2 (percent protection, FIG. 2A); assay type: in vivo, mouse; conditions: IM Compound 2
Experimental: The exposure is not highly variable between animals in a given group. The Ctrough is about 83±32 nM for animals that are protected from infection.

[2] = Key in vitro ADME for Compound 2 (Table 36); conditions: for half-life: read-out: Hepatocyte T1/2
[3] = Atovaquone plasma concentration following PO administration of Compound 27 (Table 29); assay type: in vivo, mice; conditions: Compound 27, PO; 28 d
Experimental: Animals (Male CD-1 mice, 7-9 weeks) were obtained from an approved vendor (SLAC Laboratory Animal Co. Ltd., Shanghai, China; or SIPPR-B&K Laboratory Animal Co. Ltd., Shanghai, China).
Animals were fasted at least 12 hours prior to the administration. All animals had access to Certified Rodent Diet (Catalog #M01-F, SLAC Laboratory Animal Cl. Ltd., Shanghai, China) ad libitum 4 hours post dosing.
Appropriate amount of test compound was accurately weighed and mixed with appropriate volume of vehicle to get a clear solution or a uniform suspension, vortexing or sonication in water bath was sometimes needed. The formulations were prepared on the day of dosing. Animals were dosed within four hours after the formulation was prepared. Two 20 μL aliquots of each formulation were removed from each of the formulation solutions, transferred into 1.5 mL of polypropylene microcentrifuge tubes and run dose validation by LC/UV or LC-MS/MS.
The PO dose formulation was administered via oral gavage following facility SOPs. […]
• Aliquots of the formulations were collected in the middle position of each dose formulation in duplicate. • The concentrations of the test compound in dose formulation samples were determined by the LC/UV or LC/MS/MS method. […]
Plasma concentration versus time data was analyzed by non-compartmental approaches using the Phoenix WinNonlin 6.3 software program. […]

[4] = after IM crystalline Compound 2 10 mg/kg, 20 mg/mL suspension in 3% TPGS, 1% HPMC E5

Row | half-life [1] [h] | AUC(0-inf) [1, 4] [µM·h] | AUC(0-t) [1, 4] [µM·h] | CL/F [1, 4] [L/h/kg] | Cmax [1, 4] [µM] | T1/2 [1, 4] | Tmax [1, 4] [h] | Clast [1, 4] | half-life ([2]; Dog hepatocytes) [h] | Liver S9 % remaining after 2 hours ([2]; Dog liver S9) [%] | Plasma % remaining after 2 hours ([2]; Dog plasma) [%] | half-life ([2]; Human hepatocytes) [h] | Liver S9 % remaining after 2 hours ([2]; Human liver S9) [%] | Plasma % remaining after 2 hours ([2]; Human plasma) [%] | Plasma % remaining after 2 hours ([2]; Monkey plasma) [%] | Plasma % remaining after 2 hours ([2]; Mouse plasma) [%] | Plasma % remaining after 2 hours ([2]; Rat plasma) [%] | average atovaquone plasma concentration [3] | Compound | plasma exposure (in words) [1] | Ctrough (ELQ-300) for animals that are protected from infection (sporozoites)
1 | 205 | 1290 | 1140 | 0.0138 | 4.64 | 205 (39) h | 48 | – | – | – | – | – | – | – | – | – | – | – | COc1cc2[nH]c(C)c(-c3ccc(Oc4ccc(OC(F)(F)F)cc4)cc3)c(=O)c2cc1Cl [ELQ-300, 6-chloro-7-methoxy-2-methyl-3-(4-(4-(trifluoromethoxy)phenoxy)phenyl)quinolin-4(1H)-one, reference compound] | several orders of magnitude higher than that of Compound 2 | –
2 | 124 | 18.1 | 16.4 | 0.864 | 0.73 | 124 (34) h | 3 | 4.5 (4.7) | 0.367 | 47 | 83 | 1.28 | 35 | 82 | 85 | 0 | 0 | – | CCCC(=O)OCOc1c(-c2ccc(Oc3ccc(OC(F)(F)F)cc3)cc2)c(C)nc2cc(OC)c(Cl)cc12 [Compound 2, (6-chloro-7-methoxy-2-methyl-3-(4-(4-(trifluoromethoxy)phenoxy)phenyl)quinolin-4-yloxy)methyl butyrate] | low but detectable throughout the duration of the study | about 83±32 nM
3 | – | – | – | – | – | – | – | – | – | – | – | – | – | – | – | – | – | BQL | CCCCCCCCCC(=O)OC1=C(C2CCC(c3ccc(Cl)cc3)CC2)C(=O)c2ccccc2C1=O (stereo not shown) [Compound 27, 3-((1r,4r)-4-(4-chlorophenyl)cyclohexyl)-1,4-dioxo-1,4-dihydronaphthalen-2-yl decanoate] | – | –

Reference: patent publication US11485697B2, “Antimalarial compositions and uses thereof” (THE SCRIPPS RESEARCH INSTITUTE, priority 2016, dated 2022)
